Experimental data from publication PMC9011219 (Annals of Translational Medicine, 2022).

Experiments:
BuChE = BuChE (Equus caballus, UniProt P81908); assay: Ellman assay; assay type: biochemical
AChE = AChE (Electrophorus electricus, UniProt O42275); assay: Ellman assay; assay type: biochemical
AChE, sequence (O42275 24-633): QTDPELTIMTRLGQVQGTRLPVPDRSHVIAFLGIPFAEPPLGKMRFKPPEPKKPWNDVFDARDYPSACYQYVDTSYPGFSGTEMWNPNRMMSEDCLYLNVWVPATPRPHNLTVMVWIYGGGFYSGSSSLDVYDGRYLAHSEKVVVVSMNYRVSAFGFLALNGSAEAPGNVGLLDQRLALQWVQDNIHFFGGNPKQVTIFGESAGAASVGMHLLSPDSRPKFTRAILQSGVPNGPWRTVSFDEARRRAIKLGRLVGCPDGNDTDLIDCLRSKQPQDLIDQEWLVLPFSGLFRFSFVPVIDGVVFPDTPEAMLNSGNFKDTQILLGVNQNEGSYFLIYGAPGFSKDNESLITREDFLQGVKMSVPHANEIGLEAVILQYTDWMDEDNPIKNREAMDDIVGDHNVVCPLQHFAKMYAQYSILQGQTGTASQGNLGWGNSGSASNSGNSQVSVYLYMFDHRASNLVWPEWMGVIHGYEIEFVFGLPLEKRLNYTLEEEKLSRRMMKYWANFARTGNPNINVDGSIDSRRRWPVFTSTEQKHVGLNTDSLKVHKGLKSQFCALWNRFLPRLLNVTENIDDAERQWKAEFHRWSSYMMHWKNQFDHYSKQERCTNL

BuChE, sequence (P81908 whole entry): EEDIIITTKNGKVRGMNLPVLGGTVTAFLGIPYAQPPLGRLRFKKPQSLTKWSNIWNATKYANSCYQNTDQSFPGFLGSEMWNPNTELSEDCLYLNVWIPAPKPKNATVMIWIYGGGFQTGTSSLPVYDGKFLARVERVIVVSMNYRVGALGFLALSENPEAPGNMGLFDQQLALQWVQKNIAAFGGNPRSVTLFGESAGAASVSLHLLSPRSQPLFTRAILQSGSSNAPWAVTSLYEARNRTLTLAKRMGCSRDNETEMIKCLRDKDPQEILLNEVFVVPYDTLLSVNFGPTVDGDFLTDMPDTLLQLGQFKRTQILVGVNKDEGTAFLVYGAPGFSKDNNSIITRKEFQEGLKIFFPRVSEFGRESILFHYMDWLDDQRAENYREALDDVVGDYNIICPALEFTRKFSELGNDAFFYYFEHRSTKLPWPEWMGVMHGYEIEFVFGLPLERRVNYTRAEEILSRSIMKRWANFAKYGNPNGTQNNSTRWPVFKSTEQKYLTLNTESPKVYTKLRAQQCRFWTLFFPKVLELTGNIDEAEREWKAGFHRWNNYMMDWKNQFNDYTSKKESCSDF

SMILES: CN(C)C(=O)Oc1ccc2[nH]cc(CCNC(=O)CNc3cccc4cccnc34)c2c1 [b4, 3-(2-(2-(quinolin-8-ylamino)acetamido)ethyl)-1H-indol-5-yl dimethylcarbamate]
- IC50 (BuChE): 0.9 ± 0.1 µM
- IC50 (AChE): 11.2 ± 0.3 µM

SMILES: O=C(CNc1cccc2cccnc12)NCCc1c[nH]c2ccccc12 [b1, N-(2-(1H-indol-3-yl)ethyl)-2-(quinolin-8-ylamino) acetamide]
- IC50 (AChE): 11.2 ± 0.4 µM

SMILES: CN(C)C(=O)Oc1ccc2[nH]cc(CCNc3cccc4cccnc34)c2c1 [c4, 3-(2-(quinolin-8-ylamino)ethyl)-1H-indol-5-yl dimethylcarbamate]
- IC50 (BuChE): 0.9 ± 0.1 µM

SMILES: CCN(C)C(=O)Oc1ccc2[nH]cc(CCNC(=O)CNc3cccc4cccnc34)c2c1 [b5, 3-(2-(2-(quinolin-8-ylamino)acetamido)ethyl)-1H-indol-5-yl ethyl (methyl) carbamate]
- IC50 (BuChE): 0.8 ± 0.1 µM
- IC50 (AChE): 13.7 ± 0.6 µM

SMILES: COc1ccc2[nH]cc(CCNC(=O)CNc3cccc4cccnc34)c2c1 [b2, N-(2-(5-methoxy-1H-indol-3-yl)ethyl)-2-(quinolin-8-ylamino) acetamide]
- IC50 (AChE): 13 ± 0.2 µM

SMILES: O=C(NCCc1c[nH]c2ccccc12)Nc1cccc2cccnc12 [a1, 1-(2-(1H-indol-3-yl)ethyl)-3-(quinolin-8-yl) urea]
- IC50 (BuChE): 10.3 ± 0.7 µM

SMILES: COc1ccc2[nH]cc(CCNC(=O)Nc3cccc4cccnc34)c2c1 [a2, 1-(2-(5-methoxy-1H-indol-3-yl)ethyl)-3-(quinolin-8-yl) urea]
- IC50 (AChE): 29.2 ± 1.2 µM

SMILES: O=C(CNc1cccc2cccnc12)NCCc1c[nH]c2ccc(O)cc12 [b3, N-(2-(5-hydroxy-1H-indol-3-yl)ethyl)-2-(quinolin-8-ylamino) acetamide]
- IC50 (AChE): 4.34 ± 0.1 µM

SMILES: Oc1ccc2[nH]cc(CCNc3cccc4cccnc34)c2c1 [c3, 3-(2-(quinolin-8-ylamino)ethyl)-1H-indol-5-ol]
- IC50 (BuChE): 4.3 ± 0.4 µM

SMILES: CCN(C)C(=O)Oc1ccc2[nH]cc(CCNc3cccc4cccnc34)c2c1 [c5, 3-(2-(quinolin-8-ylamino)ethyl)-1H-indol-5-yl ethyl (methyl) carbamate]
- IC50 (BuChE): 1.1 ± 0.1 µM
- IC50 (AChE): 25.1 ± 1.7 µM

SMILES: COc1ccc2[nH]cc(CCNc3cccc4cccnc34)c2c1 [c2, N-(2-(5-methoxy-1H-indol-3-yl)ethyl) quinolin-8-amine]
- IC50 (BuChE): 4.5 ± 0.3 µM

SMILES: c1cnc2c(NCCc3c[nH]c4ccccc34)cccc2c1 [c1, N-(2-(1H-indol-3-yl)ethyl) quinolin-8-amine]
- IC50 (BuChE): 13.5 ± 0.4 µM
- IC50 (AChE): 32.7 ± 1.4 µM

SMILES: CN(C)C(=O)Oc1ccc2[nH]cc(CCNC(=O)Nc3cccc4cccnc34)c2c1 [a4, 3-(2-(3-(quinolin-8-yl)ureido)ethyl)-1H-indol-5-yl dimethylcarbamate]
- IC50 (BuChE): 3.3 ± 0.2 µM
- IC50 (AChE): 35.6 ± 0.6 µM

SMILES: CCN(C)C(=O)Oc1ccc2[nH]cc(CCNC(=O)Nc3cccc4cccnc34)c2c1 [a5, 3-(2-(3-(quinolin-8-yl)ureido)ethyl)-1H-indol-5-yl ethyl (methyl) carbamate]
- IC50 (BuChE): 2.6 ± 0.4 µM

SMILES: O=C(NCCc1c[nH]c2ccc(O)cc12)Nc1cccc2cccnc12 [a3, 1-(2-(5-hydroxy-1H-indol-3-yl)ethyl)-3-(quinolin-8-yl) urea]
- IC50 (BuChE): 8.78 ± 0.3 µM
- IC50 (AChE): 36.3 ± 0.7 µM
